These results are taken from US20100087498A1, “USE OF BIOTIN TO PREVENT PHOTOAGING” (priority 2007, published 2010).

In this assay the test system is MMP-1 expression in primary human dermal fibroblasts. The assay is described as follows: Inhibition of UV-A induced expression of matrix metalloproteinase-1 (MMP-1 RNA, real time PCR) in skin fibroblasts. The following applies: 30 J/cm^2 UVA1; for MMP-1 expression relative to UV-A only treated cells / reduction of UV-A induced MMP-1 expression: primary human dermal fibroblasts; for MMP-1 expression relative to UV-A only treated cells: 48 h preincubation, 24 hrs after irradiation; for reduction of UV-A induced MMP-1 expression: concentrations as in Table 1. The class given is cell-based. How it is done:
Primary human dermal fibroblasts were cultured in EMEM without glutamine (Earle's Minimum Essential Medium), supplemented with antibiotics/antimycotics, 2 mM L-glutamine and 7.5% fetal calf serum at 37° C./5% CO2 and grown to 100% confluency. Forty-eight hours prior to irradiation the cells were preincubated with the desired substances in EMEM (with AB/AM, L-Glutamine and 2% FCS. After 24 hours the medium was replaced by fresh medium with substances (freshly prepared). For irradiation, the medium was removed and after 6 wash steps with phosphate-buffered saline (PBS) replaced by phosphate-buffered saline (PBS). The plate was then exposed to 30 J/cm^2 UVA1. The UVA1 output was approximately 150 mW/cm^2. After irradiation the phosphate-buffered saline in the cell microplate was exchanged against culture medium (+7.5% FCS) with the substances (fresh prepared) and the cells were incubated in a CO2-incubator for further 24 hrs (MMP-1 determination). The culture medium was removed, the cells were rinsed with phosphate-buffered saline and the whole plate was frozen in liquid nitrogen. Total RNA was isolated using RNeasy Total RNA Kits (Qiagen, Hilden; Germany). The RNA concentration was determined via photometric measurement at 260/280. Aliquots of total RNA (75 ng) were applied for cDNA-Synthesis using Superscript™III First-Strand synthesis system for RT-PCR. Two samples for each compound were analyzed. The PCR reactions were carried out on an Opticon 1 (MJ Research, Waltham, Mass., USA) using SYBR Green® PCR Master Mix (Applied Biosystems, Darmstadt, Germany). For comparison of relative expression in real time PCR control cells and treated cells the 2 ^(-delta delta C(T)) method was used.
Background: Quantitative PCR measures a nucleic acid by following its amplification.

The mark [1] stands for this setting: EGCG 9 μmol/L, Biotin 0.03 μmol/L.

Consider `O=C(O)CCCC[C@@H]1SC[C@@H]2NC(=O)N[C@@H]21` [Biotin], for which the “reduction of UV-A induced MMP-1 expression” value stood at 66%. The molecule also gave an inhibition at 0.03 µM (Homo sapiens, Fibroblast, light or radiation study, inhibition of UV-A induced MMP-1 expression, EGCG 9 μmol/L, Biotin 0.03 μmol/L) of 66%. For the same molecule, under setting [1], the “MMP-1 expression relative to UV-A only treated cells” value came out at 35%.
Turning to (-)-epigallocatechin gallate [EGCG], the “reduction of UV-A induced MMP-1 expression” value is given as 13%. Besides, under “inhibition of UV-A induced MMP-1 expression, EGCG 9 μmol/L, Biotin 0.03 μmol/L”, the “% inhibition” value came to 13%. For the same molecule, the “MMP-1 expression relative to UV-A only treated cells” value under setting [1] is listed as 87%.

A word on the inhibition: it is the relative decrease from the control value, in per cent. Read a high inhibition as a strong effect. What is called % inhibition is the percentage by which the read-out fell short of the control. Read a low % inhibition as little suppression.
